From patent US12630512B2, “Agents for differentiating stem cells and treating cancer” (Minerva Biotechnologies Corporation, priority 2017, dated 2026)

Legend:
[1] = system: micro-RNA-145; assay: RT-PCR measurement of miR-145 in T47D cancer cells; format: cell-based, human; settings: treated for 72 hours (FIG. 92A-92C)
Description: FIGS. 92A-92C show graphs of RT-PCR measurement of T47D cancer cells treated for 72 hours with compounds of the invention at the indicated concentrations, wherein the gene that is measured is micro-RNA-145, which is a harbinger of stem cell differentiation
(§1) We used RT-PCR to measure changes in the expression of some of these super-enhancer genes, AXIN2, which is a surrogate for activated β-catenin, miR-145, MUC1 and MUC1* ligands NME7AB and NME7-X1. […] Thus, compounds of the invention, at least in part, inhibit tumor cell migration and invasiveness by inducing expression of genes that are critical for differentiation, some of which are super-enhancer target genes, and miR-145, while decreasing expression of β-catenin, MUC1 and its growth factor NME7AB. Novel compounds of the invention are powerful agents for the treatment or prevention of cancers and metastatic cancers. […] In one aspect of the invention, a biological sample from a patient is tested for the presence of MUC1*, NME7AB or NME7-X1, and upon finding that the patient's cancer is positive for MUC1*, NME7AB or NME7-X1, a compound of the invention is administered to the patient in an amount suitable to prevent or treat the cancer. In one instance, the patient sample is subjected to a test, such as PCR, to determine the amount of nucleic acid that encodes MUC1, NME7 or NME7-X1. […] In another aspect of the invention, the patient's cancer is considered to be MUC1* positive, NME7AB positive or NME7-X1 positive if expression of those genes is equal to or greater than 0.5% of EEF1A1 expression in those cells. In yet another aspect of the invention, the patient's cancer is considered to be MUC1* positive if the patient's tissue specimen is contacted with an antibody that binds to the PSMGFR peptide or the N-10 peptide and stains the tissue with a pathologist's standard score 1-4 (“+−++++”). […]

[2] = system: human fibroblasts; assay: Effect on fibroblasts as surrogate for normal cells; format: cell-based; settings: fibroblasts as surrogate for normal cells; 6 uM
Excerpt: However, fibroblasts are more differentiated than stem cells but are able to self-replicate for defined periods of time. We tested selected compounds of the invention to determine if these compounds were just cytotoxic or if they selectively affected stem cells and, importantly, cancer cells, but not normal, healthy cells. Here, we used fibroblasts as a surrogate for normal cells. […] […] Each compound was scored for its effect on fibroblast proliferation where “+” indicates 25% inhibition of fibroblast growth, “++” 50% inhibition and “+++” 75% inhibition of growth.

[3] = system: human primed state stem cells; assay: Stem cell drug screen on primed state stem cells (pluripotency, proliferation, differentiation); format: cell-based; settings: primed state stem cells; 6 uM per FIGS. 46-64
Description: The stem cell screening assay, was performed in both the presence and absence of the stem cell growth factors: NME7AB for growing naïve stem cells or FGF for growing primed stem cells. If the cognate growth factor was present, then the biological or small molecule would have to compete away the growth factor to get an effect. Therefore, we expected to see more of an effect when the growth factor, FGF for primed stem cells or NME7AB or NME1 dimers for naïve stem cells, was absent. The effect of the compounds on stem cells was visually determined and compounds were ranked 0-4, with 4 being the greatest effect and 0 being no observable effect. The major effect that was observed was a change from pluripotent stem cell morphology, which is a cobblestone pattern of small round cells with a large nucleus to cytoplasm ratio, to that of differentiating stem cells, which are elongated, large and flattened cells with a smaller nucleus to cytoplasm ratio. […] The compounds were added to a final concentration of 6 uM to either naïve state stem cells or primed state stem cells. In this particular case, the naïve state stem cells were maintained in a naïve state by culturing in a media containing NME7AB or NME1 dimers. However, other methods such as 2i and 5i (Silva et al., 2008, Nichols and Smith, 2009, Theunissen et al., 2014)] can be used to maintain stem cells in a more naïve state. In this case primed state stem cells were cultured in bFGF over a layer of MEFs, although it is known that any bFGF containing media will maintain stem cells in the primed state.
Percent inhibition of cancer cell migration was performed in a wound healing assay. The percent area that the invading cancer cells occupied, in the presence of a drug candidate compared to the controls, was quantified by Image J cell software which enables cell counting from photographs. IC50's were calculated by performing migration experiments at several compound concentrations and then applying Hill's equation. Inhibition of cancer cell proliferation was quantified by automated cell counting in the presence or absence of a drug candidate. Here, the inhibition of cancer cell proliferation was scored 1 if proliferation was inhibited by 25%, 2 if inhibited by […] and 4 for the highest degree of inhibition of proliferation, and 0 for the lowest. The effect of the drug candidates on stem cell pluripotency or proliferation was scored by eye, based on cell morphology and cell density, with 0 being no change in morphology or cell number and 4 being the most profound effect, with the stem cells taking on the morphology of a differentiating cell, along with much fewer cells indicative of inhibition of proliferation. As an example, FIGS. 30A-30F show photographs of naïve stem cell, primed stem cell and fibroblast controls. FIGS. 31A-31F show the effect of compounds of the invention on naïve state stem cells, where the number of ‘+’ signs indicates the score from 0-4 of ability of compound to inhibit pluripotency, proliferation of naïve stem cells or ability to induce their differentiation. […] FIGS. 36-44 and 65-87 show photographs and IC50 graphs of the compounds of the invention, inhibiting cancer cell migration and invasion. Cancer cell migration is a hallmark of metastatic cancer.
Stem cells whether embryonic or induced pluripotent stem (iPS) cells were cultured in a minimal, serum-free media that contained human recombinant bFGF at a concentration of 8 ng/mL. The stem cells were plated over a layer of inactivated mouse embryonic fibroblasts, aka MEFs, which secrete additional uncharacterized growth factors and cytokines.
Human naïve state and primed stem cells were cultured in parallel for at least 5 passages to guarantee normal differentiation-free growth. The stem cells were plated in 12-well cell culture plates with 50,000 cells per well. Cells were cultured in their respective media, either bFGF media or NME7AB media for 24 hours. […]

[4] = system: micro-RNA-145; assay: RT-PCR measurement of miR-145 in naïve state stem cells; format: cell-based, human; settings: treated for 72 hours (FIG. 91A-91C)
Description: FIGS. 91A-91C show graphs of RT-PCR measurement of naïve state stem cells treated for 72 hours with compounds of the invention at the indicated concentrations, wherein the gene that is measured is micro-RNA-145, which is a harbinger of stem cell differentiation.
as §1

SMILES: C[C@@H]1Cc2c([nH]c3ccccc23)CN1C(=O)C1CCC(CN(C)C(=O)NC(C)(C)C)CC1 (stereo partly drawn) [MN1423]
- expression of miR-145 in T47D cancer cells [1]: increased expression of miR-145 in cancer cells
- effect on fibroblast cells [2]: no effect
- effect on primed state stem cells [3]: no effect
- expression of miR-145 in naïve state stem cells [4]: increased expression of miR-145

SMILES: CN(C[C@H]1CC[C@H](C(=O)N2CCc3c([nH]c4ccccc34)C2C2CC2)CC1)C(=O)NC(C)(C)C (stereo partly drawn) [MN1413]
- expression of miR-145 in T47D cancer cells [1]: increased expression of miR-145 in cancer cells
- effect on fibroblast cells [2]: no effect
- effect on primed state stem cells [3]: no effect
- expression of miR-145 in naïve state stem cells [4]: increased expression of miR-145

SMILES: CN(CC1CCC(C(=O)N2CCC(c3ccncc3)CC2)CC1)C(=O)OC(C)(C)C (stereo not drawn) [MN1428, Tert-butyl methyl((4-(4-(pyridin-4-yl)piperidine-1-carbonyl)cyclohexyl)methyl)carbamate]
- expression of miR-145 in T47D cancer cells [1]: increased expression of miR-145 in cancer cells
- effect on fibroblast cells [2]: no effect
- effect on primed state stem cells [3]: no effect
- expression of miR-145 in naïve state stem cells [4]: increased expression of miR-145
